# Read-outs that look alike come from different tables or passages of the source.
# Tests used:
# [1] = Rodent brain penetration study; format: in vivo, Male Wistar rats; details: male, Wistar, rat, oral; 3 mg/kg, p.o.; brain-plasma ratio; read-out: Single dose Rat Brain Penetration (Cb/Cp)
# Procedure: WO2015044072A1 patent application discloses indole derivatives as M1 PAM compounds. […] This makes these compounds less ideal for the treatment of CNS disorders.
# Rodent Brain Penetration Study
# Male Wistar rats (260±40 grams) were used as experimental animals. Three animals were housed in each cage. Animals were given water and food ad libitum throughout the experiment and maintained on a 12 hours light/dark cycle.
# Brain penetration was determined in discrete manner in rats. One day prior to dosing day, male Wistar rats were acclimatized and randomly grouped according to their weight. At each time point (0.5, 1 and 2 hours) n=3 animals were used.
# The test compounds were suitably preformulated and administered orally at (free base equivalent) 3 mg/kg. Blood samples were removed via cardiac puncture by using isoflurane anesthesia. The animals were sacrificed to collect brain tissue. Plasma was separated and brain samples were homogenized and stored frozen at ˜20° C. until analysis. The concentrations of the test compounds in plasma and brain were determined using LC-MS/MS method.
# The test compounds were quantified in plasma and brain homogenate by qualified LC-MS/MS method using suitable extraction technique. The test compounds were quantified in the calibration range of 1-500 ng/mL in plasma and brain homogenate. Study samples were analyzed using calibration samples in the batch and quality control samples spread across the batch.
# [2] = molecular target: human Muscarinic M1 receptor (Homo sapiens (Human), UniProt P11229); test: Allosteric potency EC50 for muscarinic M1 receptor (CHO cells, pCRE-Luc reporter); format: cell-based; details: in presence of EC20 of acetylcholine; luciferase activity, 4 hours; read-out: hM1 PAM EC50
# Procedure: Determination of Allosteric Potency EC50 Values for Muscarinic M1 Receptor:
# A stable CHO cell line expressing recombinant human Muscarinic M1 receptor and pCRE-Luc reporter system was used for cell-based assay. The assay offers a non-radioactive based approach to determine binding of a compound to GPCRs. In this specific assay, the level of intracellular cyclic AMP which is modulated by activation or inhibition of the receptor is measured. The recombinant cells harbor luciferase reporter gene under the control of cAMP response element.
# The above cells were grown in 96 well clear bottom white plates in Hams F12 medium containing 10% fetal bovine serum (FBS). Prior to the addition of compounds or standard agonist, cells were serum starved overnight. Increasing concentrations of test compounds were added along with EC20 of acetylcholine in OptiMEM medium to the cells. The incubation was continued at 37° C. in CO2 incubator for 4 hours. Medium was removed and cells were washed with phosphate buffered saline. The cells were lysed and luciferase activity was measured in a Luminometer. Luminescence units were plotted against the compound concentrations using Graphpad software. EC50 values of the compounds were defined as the concentration required in stimulating the luciferase activity by 50% in presence of EC20 of acetylcholine and the results are provided in table 1.
# [3] = Protein binding assay (HT dialysis), rat matrices; format: in vitro ADME; details: Mean ± SEM
# Procedure: (§1) Unbound fractions of new chemical entities in plasma, brain homogenate and liver microsomes were determined using high-throughput dialysis (HT dialysis). Briefly, dialysis membranes were soaked in deionized water for 20 minutes and then in deionized water with 30% ethanol for 15 minutes and finally in phosphate buffer until use. Membranes were rinsed in phosphate buffer before assembling. The membranes were layered between teflon bars of dialysis assembly. Stock solutions of test compounds were prepared at 10 mM in DMSO, diluted to 1 mM in acetonitrile and further diluted to 100 μM in mixture of water and acetonitrile (1:1 v/v). Human plasma (pool of 3) was prepared from human blood (3 donors) by centrifuging at 4000 rpm for 10 min at 4° C. Rat and dog blood were obtained on the day of the study and centrifuged to obtain plasma. Rat brains were isolated, cleaned and homogenized with 2 volumes of buffer (3 fold dilution). Liver microsomes were prepared at 0.5 mg/mL in phosphate buffer (100 mM, pH 7.4). The dialysate chambers were loaded with 150 μL of 100 mM phosphate buffer (pH 7.4) in triplicates. The matrix chambers were loaded with 150 μL of the plasma or brain homogenate or microsomal suspension spiked with test compounds at a final concentration of 1 μM. 50 μL of the sample was removed from both the chambers at 0 h. The plate was sealed and incubated at 37° C. for 6 h at 100 rpm. After 6 h, 50 μL of the sample was removed from both the chambers. Equal volumes of buffer or human plasma/microsomal suspension were added to the plasma/microsomal and buffer samples respectively to create identical sample matrices for analysis. The samples were precipitated with 150 μL of acetonitrile containing fluoxetine as an internal standard. All the samples were centrifuged at 10000 rpm for 10 minutes at 4° C.
# Male Wistar rats = test: Object recognition task model; format: in vivo; details: 3 mg/kg, p.o.
# Procedure: Object Recognition Task Model
# The cognition enhancing properties of compounds of this invention were estimated by using this model.
# Male Wistar rats (8-10 weeks old) were used as experimental animals. Four animals were housed in each cage. Animals were kept on 20% food deprivation from a day prior to experimentation. Water was provided ad libitum throughout the experiment. Animals were maintained on a 12 hours light/dark cycle in temperature and humidity controlled room. The experiment was carried out in an open field made up of acrylic. Rats were habituated to individual arenas (open field) for 1 hour in the absence of any objects on day 1.
# One group of 12 rats received vehicle and another set of animals received compound of the formula (I), before the familiar (T1) and choice (T2) trials. During the familiarization phase, (T1), the rats were placed individually in the arena for 3 minutes, in which two identical objects (a1 and a2) were positioned 10 cm from the wall. 24 hours after T1, trial for long-term memory test was performed. The same rats were placed in the same arena as they were placed in T1 trial. During the choice phase (T2) rats were allowed to explore the arena for 3 minutes in presence of a copy of familiar object (a3) and one novel object (b). During the T1 and T2 trial, explorations of each object (defined as sniffing, licking, chewing or having moving vibrissae whilst directing the nose towards the object at a distance of less than 1 cm) were recorded using stopwatch. • T1 is the total time spent exploring the familiar objects (a1+a2). • T2 is the total time spent exploring the familiar object and novel object (a3+b). • Discriminative index=Time spent with novel object/(time spent with novel and familiar object).
# The object recognition test was performed as described by Behavioural Brain Research, 1988, 31, 47-59 and the results are provided in table 5.
# [4] = Protein binding assay (HT dialysis), human matrices; format: in vitro ADME; details: Mean ± SEM
# Procedure: as §1
# [5] = Protein binding assay (HT dialysis), dog matrices; format: in vitro ADME; details: Mean ± SEM
# Procedure: as §1
# [6] = Rodent pharmacokinetic study; format: in vivo, Male Wistar rats; details: male, Wistar
# Procedure: Rodent Pharmacokinetic Study
# Male Wistar rats (260±50 grams) were used as experimental animals. Animals were housed individually in polypropylene cage. Two days prior to study, male Wistar rats were anesthetized with isoflurane for surgical placement of jugular vein catheter. Rats were randomly divided for oral (3 mg/kg) and intravenous (i.v.) (1 mg/kg) dosing (n=3/group) and fasted overnight before oral dosing (p.o.). However, rats allocated to intravenous dosing food and water was provided ad libitum.
# At pre-determined point, blood was collected through jugular vein and replenished with an equivalent volume of normal saline. Collected blood was transferred into a labeled eppendorf tube containing 10 μL of heparin as an anticoagulant. Typically blood samples were collected at following time points: 0.08, 0.25, 0.5, 1, 2, 4, 6, 8, and 24 hours post dose. Blood was centrifuged at 4000 rpm for 10 minutes. Plasma was separated and stored frozen at −80° C. until analysis. The concentrations of the test compounds were quantified in plasma by qualified LC-MS/MS method using suitable extraction technique. The test compounds were quantified in the calibration range around 1-1000 ng/mL in plasma. Study samples were analyzed using calibration samples in the batch and quality control samples spread across the batch.
# Pharmacokinetic parameters Cmax, AUCt, T1/2, Clearance, and Bioavailability (% F) were calculated by non-compartmental model using standard non-compartmental model by using Phoenix WinNonlin 6.0.2 or 6.0.3 version Software package and the results are tabulated in table 3.
# [7] = cited from earlier work
# M1 = M1 (Homo sapiens (Human), UniProt P11229); details: cited from earlier work
# [8] = cited from earlier work; remark: listed apart in the source
# [9] = mean ± S.E.M, choice trial 24 hours after T1
structure (smiles),measurement,setting,value
"O=C(N[C@H]1CCCC[C@@H]1O)c1cn(Cc2ccnc(Cl)c2)c2c(F)ccc(F)c12 [Example 6, N-[(1S,2S)-2-Hydroxycyclohexyl]-1-(2-Chloropyridin-4-ylmethyl)-4,7-difluoro-1H-indole-3-carboxamide]",Kp,[1],2.09 ± 0.46
same,EC50,[2],122 nM
same,"fraction unbound at 6 h, 1 μM","[3]; pH 7.4, Rat brain homogenate, 37° C., n = 3, read-out: Fu Brain",0.014 ± 0.001
same,"fraction unbound at 6 h, 1 μM","[3]; pH 7.4, Rat liver microsomes 0.5 mg/mL, n = 3, read-out: Fu Microsomes",0.56 ± 0.048
same,"fraction unbound at 6 h, 1 μM","[3]; pH 7.4, Rat plasma, 37° C., n = 3, read-out: Fu Plasma",0.05 ± 0.008
same,Inference,Male Wistar rats,Active
same,Exploration time Familiar object,Male Wistar rats; [9],15.75 ± 1.71 s
same,Exploration time Novel object,Male Wistar rats; [9],23.67 ± 2.62 s
same,"fraction unbound at 6 h, 1 μM","[4]; pH 7.4, Human liver microsomes 0.5 mg/mL, n = 3, read-out: Fu Microsomes",0.546 ± 0.018
same,"fraction unbound at 6 h, 1 μM","[4]; pH 7.4, Human plasma, 37° C., n = 3, read-out: Fu Plasma",0.03 ± 0.003
same,"fraction unbound at 6 h, 1 μM","[5]; pH 7.4, Dog liver microsomes 0.5 mg/mL, n = 3, read-out: Fu Microsomes",0.713 ± 0.041
same,"fraction unbound at 6 h, 1 μM","[5]; pH 7.4, Dog plasma, 37° C., n = 3, read-out: Fu Plasma",0.043 ± 0.002
"O=C(N[C@H]1CCCC[C@@H]1O)c1cn(Cc2ccncc2F)c2c(F)ccc(F)c12 [Example 10, N-[(1S,2S)-2-Hydroxycyclohexyl]-1-(5-fluoropyridin-4-ylmethyl)-4,7-difluoro-1H-indole-3-carboxamide]",Kp,[1],2.4 ± 0.3
same,EC50,[2],940 nM
"O=C(N[C@H]1CCCC[C@@H]1O)c1cn(Cc2cc(F)ncc2F)c2cccc(F)c12 [Example 11, N-[(1S,2S)-2-Hydroxycyclohexyl]-1-(2,5-difluoropyridin-4-ylmethyl)-4-fluoro-1H-indole-3-carboxamide]",Kp,[1],1.59 ± 0.35
same,EC50,[2],1530 nM
"O=C(N[C@H]1CCCC[C@@H]1O)c1cn(Cc2cc(F)ncc2F)c2c(F)ccc(F)c12 [Example 12, N-[(1S,2S)-2-Hydroxycyclohexyl]-1-(2,5-difluoropyridin-4-ylmethyl)-4,7-difluoro-1H-indole-3-carboxamide]",AUC(0-t),"[6]; iv, 1 mg/kg, rat plasma",609 ± 62 ng·h/mL
same,half-life,"[6]; iv, 1 mg/kg, rat plasma",1.6 ± 0.5 h
same,clearance,"[6]; plasma, iv, 1 mg/kg, rat",26.7 ± 3.4 mL/min/kg
same,bioavailability,"[6]; plasma, oral 3 mg/kg vs i.v. 1 mg/kg, rat, read-out: % F (Bioavailability)",62 ± 6%
same,AUC(0-t),"[6]; oral, 3 mg/kg, rat plasma",1140 ± 114 ng·h/mL
same,Cmax,"[6]; oral, 3 mg/kg, rat plasma",337 ± 141 ng/mL
same,half-life,"[6]; oral, 3 mg/kg, rat plasma",3 ± 3 h
same,Kp,[1],1.64 ± 0.12
same,EC50,[2],432 nM
"N#CC1(c2ccccn2)CCN(Cc2cc(C(=O)O)c(=O)n3ccccc23)CC1 [PQCA, 1-{[4-cyano-4-(pyridine-2-yl)piperidin-1-yl]methyl}-4-oxo-4H-quinolizine-3-carboxylic acid]",gastrointestinal side effects,[7]; at doses equal to or less than a fivefold margin from the minimum effective dose required to improve cognition,no gastrointestinal side effects
same,efficacy in preclinical models of cognition,[7]; several preclinical models of cognition,efficacious
same,selectivity for M1 over the other muscarinic receptor subtypes,M1,highly selective
CCCCCCOc1nsnc1C1=CCCN(C)C1 [Xanomeline],effects on cognition,[8]; clinical Alzheimer's disease (AD) trial,significant effects on cognition
same,gastrointestinal side effects,[8]; clinical trials,gastrointestinal side effects led to a high dropout rate

# — patent publication US10294217B2, “Fluoroindole derivatives as muscarinic M1 receptor positive allosteric modulators” (Suven Life Sciences Limited, priority 2015, dated 2019)
